{"source": "ChEMBL document CHEMBL4261660", "about": "“Synthesis and biological evaluation of a trisaccharide repeating unit derivative of Streptococcus pneumoniae 19A capsular polysaccharide” (Bioorg Med Chem, 2018)", "key": {"[1]": {"test": "Inhibition of anti-19F rabbit polyclonal antibody binding to Streptococcus pneumoniae 19F capsular polysaccharide coated on to plates after overnight incubation ar 4 to 8 degC by competitive ELISA", "set-up": "species or system Oryctolagus cuniculus"}, "Oryctolagus cuniculus [2]": {"species_on_record": "Oryctolagus cuniculus", "test": "Inhibition of binding of anti-19A rabbit polyclonal antibody to Streptococcus pneumoniae 19A capsular polysaccharide coated on to plates at 1 mg/ml after overnight incubation at 4 to 8 degC by competitive ELISA"}, "[3]": {"test": "Inhibition of binding of anti-19A rabbit polyclonal antibody to Streptococcus pneumoniae 19A capsular polysaccharide coated on to plates after overnight incubation at 4 to 8 degC by competitive ELISA", "set-up": "species or system Oryctolagus cuniculus"}, "Oryctolagus cuniculus [4]": {"species_on_record": "Oryctolagus cuniculus", "test": "Inhibition of anti-19F rabbit polyclonal antibody binding to Streptococcus pneumoniae 19F capsular polysaccharide coated on to plates at 1 mg/ml after overnight incubation ar 4 to 8 degC by competitive ELISA"}}}
{"compound": "CC(=O)N[C@@H]1[C@H](O[C@H]2[C@H](O)[C@@H](O)[C@@H](O[C@@H]3[C@@H](O)[C@H](C)O[C@@H](OCCCN)[C@@H]3O)O[C@@H]2CO)O[C@H](CO)[C@@H](O)[C@@H]1O.Cl", "values": [{"measurement": "EC50", "setting": "[1]", "value": 2.7, "unit": "×10⁻² mg/ml"}, {"measurement": "inhibition", "setting": "Oryctolagus cuniculus [2]", "value": 41, "unit": "%"}, {"measurement": "EC50", "setting": "[3]", "value": 1.3, "unit": "×10⁻³ mg/ml"}, {"measurement": "inhibition", "setting": "Oryctolagus cuniculus [4]", "value": 32, "unit": "%"}]}
